Data as given in the NIST ThermoML archive (doi:10.1021/acs.jced.9b00377).
± gives the expanded uncertainty stated by the source.

How the values were obtained:
[1] = for viscosity: Falling or rolling sphere viscometry; for speed of sound: Single path-length method
[2] = refractive index (Na D-line) (dimensionless); conditions: 100 kPa, Liquid, Standard Abbe refractometry

CN(C)C(=[NH2+])N(C)C.O=C([O-])O [1,1,3,3-tetramethylguanidinium hydrogen carbonate]
Conditions | mass density [kg/m3]
[1], 173 K, 101.33 kPa, Crystal, X-ray diffraction | 1213 ± 12

CCCCCCCC(=O)[O-].CN(C)C(=[NH2+])N(C)C [1,1,3,3-tetramethylguanidinium octanoate]
[1], 100 kPa, Liquid
Conditions | speed of sound [m/s] | viscosity [mPa·s]
293.15 K | 1497.3 ± 50 | 1093 ± 450
298.15 K | 1481.3 ± 50 | 737.2 ± 300
303.15 K | 1465.4 ± 50 | 506.8 ± 210
308.15 K | 1449.4 ± 50 | 347.6 ± 140
313.15 K | 1433.5 ± 50 | 249.6 ± 100
318.15 K | 1417.5 ± 50 | 186.8 ± 75
323.15 K | 1401.6 ± 50 | 138.8 ± 56
328.15 K | 1387.2 ± 50 | 105.7 ± 42
333.15 K | 1371.3 ± 50 | 81.2 ± 32
338.15 K | 1355.3 ± 50 | 65 ± 26
343.15 K | 1339.4 ± 50 | 52.5 ± 21

[1], 100 kPa, Liquid, Vibrating tube method
Conditions | mass density [kg/m3]
293.15 K | 969.06 ± 2.1
298.15 K | 965.65 ± 2.1
303.15 K | 962.28 ± 2.1
308.15 K | 958.95 ± 2.1
313.15 K | 955.63 ± 2.1
318.15 K | 952.3 ± 2.1
323.15 K | 948.95 ± 2.1
328.15 K | 945.59 ± 2.1
333.15 K | 942.23 ± 2.1
338.15 K | 938.85 ± 2.1
343.15 K | 935.46 ± 2.1

[2]
Conditions | refractive index
293.15 K | 1.4678 ± 0.01
298.15 K | 1.4657 ± 0.01
303.15 K | 1.4631 ± 0.01
308.15 K | 1.4612 ± 0.01
313.15 K | 1.4589 ± 0.01
318.15 K | 1.4565 ± 0.01
323.15 K | 1.4544 ± 0.01
328.15 K | 1.4523 ± 0.01
333.15 K | 1.4501 ± 0.01
338.15 K | 1.4482 ± 0.01
343.15 K | 1.4463 ± 0.01

CCCCCC(=O)[O-].CN(C)C(=[NH2+])N(C)C [1,1,3,3-tetramethylguanidinium hexanoate]
[1], 100 kPa, Liquid
Conditions | speed of sound [m/s] | viscosity [mPa·s]
293.15 K | 1539 ± 50 | 1534 ± 640
298.15 K | 1522.2 ± 50 | 1001 ± 410
303.15 K | 1505.5 ± 50 | 657.8 ± 270
308.15 K | 1488.8 ± 50 | 442.1 ± 180
313.15 K | 1472.1 ± 50 | 309.8 ± 130
318.15 K | 1455.4 ± 50 | 221.1 ± 89
323.15 K | 1438.7 ± 50 | 159.5 ± 64
328.15 K | 1423.6 ± 50 | 118.5 ± 48
333.15 K | 1406.9 ± 50 | 89.4 ± 36
338.15 K | 1390.2 ± 50 | 69.3 ± 28
343.15 K | 1373.5 ± 50 | 54 ± 22

[1], 100 kPa, Liquid, Vibrating tube method
Conditions | mass density [kg/m3]
293.15 K | 997.51 ± 2.1
298.15 K | 994.1 ± 2.1
303.15 K | 990.61 ± 2.1
308.15 K | 987.16 ± 2.1
313.15 K | 983.73 ± 2.1
318.15 K | 980.29 ± 2.1
323.15 K | 976.82 ± 2.1
328.15 K | 973.32 ± 2.1
333.15 K | 969.78 ± 2.1
338.15 K | 966.22 ± 2.1
343.15 K | 962.63 ± 2.1

[2]
Conditions | refractive index
293.15 K | 1.4701 ± 0.01
298.15 K | 1.4684 ± 0.01
303.15 K | 1.466 ± 0.01
308.15 K | 1.4638 ± 0.01
313.15 K | 1.4619 ± 0.01
318.15 K | 1.4601 ± 0.01
323.15 K | 1.458 ± 0.01
328.15 K | 1.4563 ± 0.01
333.15 K | 1.4544 ± 0.01
338.15 K | 1.4528 ± 0.01
343.15 K | 1.4511 ± 0.01

CCCCCCC(=O)[O-].CN(C)C(=[NH2+])N(C)C [1,1,3,3-tetramethylguanidinium heptanoate]
[1], 100 kPa, Liquid
Conditions | speed of sound [m/s] | viscosity [mPa·s]
293.15 K | 1535.5 ± 50 | 1827 ± 760
298.15 K | 1517.9 ± 50 | 1144 ± 470
303.15 K | 1500.2 ± 50 | 740.8 ± 300
308.15 K | 1482.5 ± 50 | 493.9 ± 200
313.15 K | 1464.8 ± 50 | 336.9 ± 140
318.15 K | 1447.2 ± 50 | 242.3 ± 98
323.15 K | 1429.5 ± 50 | 172.9 ± 70
328.15 K | 1413.6 ± 50 | 126.7 ± 51
333.15 K | 1395.9 ± 50 | 94.4 ± 38
338.15 K | 1378.2 ± 50 | 71.6 ± 29
343.15 K | 1360.6 ± 50 | 55.8 ± 22

[1], 100 kPa, Liquid, Vibrating tube method
Conditions | mass density [kg/m3]
293.15 K | 986.16 ± 2.1
298.15 K | 982.69 ± 2.1
303.15 K | 979.2 ± 2.1
308.15 K | 975.61 ± 2.1
313.15 K | 972.09 ± 2.1
318.15 K | 968.56 ± 2.1
323.15 K | 965 ± 2.1
328.15 K | 961.39 ± 2.1
333.15 K | 957.74 ± 2.1
338.15 K | 954.06 ± 2.1
343.15 K | 950.35 ± 2.1

[2]
Conditions | refractive index
293.15 K | 1.4792 ± 0.01
298.15 K | 1.4776 ± 0.01
303.15 K | 1.4759 ± 0.01
308.15 K | 1.474 ± 0.01
313.15 K | 1.4722 ± 0.01
318.15 K | 1.4707 ± 0.01
323.15 K | 1.4689 ± 0.01
328.15 K | 1.4674 ± 0.01
333.15 K | 1.4656 ± 0.01
338.15 K | 1.464 ± 0.01
343.15 K | 1.4628 ± 0.01

CCCC(=O)[O-].CN(C)C(=[NH2+])N(C)C [1,1,3,3-tetramethylguanidinium butanoate]
[1], 100 kPa, Liquid
Conditions | speed of sound [m/s] | viscosity [mPa·s]
293.15 K | 1593.6 ± 50 | 2480 ± 1000
298.15 K | 1576.5 ± 50 | 1638 ± 680
303.15 K | 1559.4 ± 50 | 1049 ± 430
308.15 K | 1542.3 ± 50 | 694.1 ± 280
313.15 K | 1525.1 ± 50 | 453.1 ± 180
318.15 K | 1508 ± 50 | 318.2 ± 130
323.15 K | 1490.9 ± 50 | 223.5 ± 90
328.15 K | 1475.5 ± 50 | 158.5 ± 64
333.15 K | 1458.4 ± 50 | 114 ± 46
338.15 K | 1441.3 ± 50 | 88.1 ± 35
343.15 K | 1424.1 ± 50 | 65.7 ± 26

[1], 100 kPa, Liquid, Vibrating tube method
Conditions | mass density [kg/m3]
293.15 K | 1032.2 ± 2.2
298.15 K | 1028.74 ± 2.2
303.15 K | 1025.27 ± 2.2
308.15 K | 1021.74 ± 2.2
313.15 K | 1018.24 ± 2.1
318.15 K | 1014.77 ± 2.1
323.15 K | 1011.3 ± 2.1
328.15 K | 1007.79 ± 2.1
333.15 K | 1004.24 ± 2.1
338.15 K | 1000.67 ± 2.1
343.15 K | 997.07 ± 2.1

[2]
Conditions | refractive index
293.15 K | 1.4823 ± 0.01
298.15 K | 1.4809 ± 0.01
303.15 K | 1.4794 ± 0.01
308.15 K | 1.4781 ± 0.01
313.15 K | 1.4766 ± 0.01
318.15 K | 1.4753 ± 0.01
323.15 K | 1.474 ± 0.01
328.15 K | 1.4727 ± 0.01
333.15 K | 1.4716 ± 0.01
338.15 K | 1.4704 ± 0.01
343.15 K | 1.4693 ± 0.01

CCCCC(=O)[O-].CN(C)C(=[NH2+])N(C)C [1,1,3,3-tetramethylguanidinium pentanoate]
[1], 100 kPa, Liquid
Conditions | speed of sound [m/s] | viscosity [mPa·s]
293.15 K | 1540.6 ± 50 | 1241 ± 510
298.15 K | 1524.7 ± 50 | 797.9 ± 330
303.15 K | 1508.7 ± 50 | 561.1 ± 230
308.15 K | 1492.8 ± 50 | 382.2 ± 150
313.15 K | 1476.8 ± 50 | 268.2 ± 110
318.15 K | 1460.8 ± 50 | 199.7 ± 80
323.15 K | 1444.9 ± 50 | 147.7 ± 59
328.15 K | 1430.5 ± 50 | 111.4 ± 45
333.15 K | 1414.6 ± 50 | 85.2 ± 34
338.15 K | 1398.6 ± 50 | 67.7 ± 27
343.15 K | 1382.7 ± 50 | 54 ± 22

[1], 100 kPa, Liquid, Vibrating tube method
Conditions | mass density [kg/m3]
293.15 K | 1010.3 ± 2.1
298.15 K | 1006.9 ± 2.1
303.15 K | 1003.4 ± 2.1
308.15 K | 1000 ± 2.1
313.15 K | 996.64 ± 2.1
318.15 K | 993.25 ± 2.1
323.15 K | 989.84 ± 2.1
328.15 K | 986.42 ± 2.1
333.15 K | 982.98 ± 2.1
338.15 K | 979.53 ± 2.1
343.15 K | 976.07 ± 2.1

[2]
Conditions | refractive index
293.15 K | 1.4776 ± 0.01
298.15 K | 1.4758 ± 0.01
303.15 K | 1.4736 ± 0.01
308.15 K | 1.4718 ± 0.01
313.15 K | 1.4699 ± 0.01
318.15 K | 1.4681 ± 0.01
323.15 K | 1.4664 ± 0.01
328.15 K | 1.4648 ± 0.01
333.15 K | 1.4633 ± 0.01
338.15 K | 1.4615 ± 0.01
343.15 K | 1.46 ± 0.01
